In patent US20240024262A1, “USE OF VALERIC ACID IN PREPARATION OF DRUG FOR PREVENTING AND TREATING DIABETES” (Harbin Medical University, priority 2022, published 2024):

Tests used:
[1] = test system: PI3k/Pdpk1/Akt insulin metabolic pathway; experiment: WB and ELISA of key proteins of PI3k/Pdpk1/Akt insulin metabolic pathway in mouse pancreatic tissues; type: in vivo, mice; conditions: p value <0.05
Description: (§1) During the subsequent test, in order to observe pathological morphologies of animal tissues, paraffin sections of mouse tissues were made and subjected to HE staining, immunohistochemical staining and immunofluorescence staining. Also, mouse pancreatic tail tissues in a valeric acid intervention group and a control group were taken out from the −80° C. refrigerator and underwent TMT labeled quantitative proteome detection of the animal tissues, and differential proteins were subjected to a Western Blot test and a real-time fluorescence quantitative polymerase chain reaction (QRT PCR) test for the animal tissues to verify test results.

[2] = test system: cell proliferation and differentiation pathway; experiment: WB and ELISA of classical proteins in a cell proliferation and differentiation pathway in mouse pancreatic tissues; type: in vivo, mice
Description: as §1

[3] = test system: 3-phosphoinositide dependent protein kinase 1 (Pdpk1); experiment: TMT proteomic detection of pancreatic tissues, HFD+VA vs HFD+PBS; type: in vivo, mice; conditions: TMT proteomics
Description: as §1
Through functional annotation of GO and KEGG databases, metabolic pathways such as energy and glycolipid metabolism, glycogen synthesis, redox and phosphorylation are enriched (FIG. 19).

[4] = Serum tumor markers CEA and CA19-9 by ECLIA in high-fat fed mice; type: in vivo
Description: Finally, to detect whether tumor invasion was caused during intervention or not, contents of a carbohydrate antigen (CA 19-9) and a carcinoembryonic antigen (CEA) in mouse serum were detected and compared by using automatic electrochemiluminescence immunoassay system Cobas® 8000 (Roche, USA) and electrochemiluminescence immunoassay (ECLIA).

[5] = test system: db/db mouse islet tissues; experiment: Histopathology of pancreatic tissues of db/db mice (HE, immunofluorescence); type: in vivo
Description: During the subsequent test, in order to observe pathological morphologies of animal tissues, paraffin sections of mouse tissues were made and subjected to HE staining, immunohistochemical staining and immunofluorescence staining. […] Histopathological examination is also performed on the pancreatic tissues of db/db mice.

[6] = test system: High-fat fed C57BL6/J mice; experiment: High-fat fed C57BL/6J mice, valeric acid gavage: body weight, food intake, blood glucose homeostasis (OGTT); type: in vivo
Description: In an animal experiment of high-fat model mice at a first stage, 6-8-week-old male C57BL/6J mice without specific pathogens (SPF grade) are firstly purchased from Liaoning Changsheng Biotechnology Co., Ltd., Experimental animal feeds are ordered from Beijing keaoxieli Feed Co., Ltd., including a mouse AIN-93M maintenance feed and a high-fat feed with a fat energy supply ratio of 45%; the nutrient compositions of the two feeds are in accordance with a rodent experimental animal feed formula recommended by U.S. Department of agriculture; and the AIN-93M maintenance feed is stored at a room temperature, and the high-fat feed with the energy supply ratio of 45% is stored at the low temperature of −20° C.
The animal experimental research was implemented in accordance with the rules and regulations required by Experimental Animal Management Committee of Harbin Medical University, and animals were raised in a laboratory of Clean Experimental Animal Center of School of Public Health of Harbin Medical University. The laboratory conditions are as follows: a temperature is 21.0 (±1.5) degrees Celsius, a relative humidity is 50 (±5)%, lighting is alternately performed for 12:12 hours by using a fluorescent lamp, the feed is freely taken, and distilled water is freely drunk. After being received, 6-8-week-old C57BL6/J mice as a kind of SPF experimental animals were fed in a single cage, and were arranged to freely drink the distilled water and uptake an animal feed for a week of adaptive feeding. Subsequently, the mice were weighed and randomly divided into 4 experimental groups according to the weights of the mice; and the 4 experimental groups were fed with the AIN-93M maintenance feed and the 45% high-fat feed respectively, and were treated with phosphate buffer salt solution (PBS) and different metabolite solutions by oral gavage. […]
During the feeding period of experimental animals, a scattered food amount and a leftover food amount of mice were weighed with an electronic scale and recorded and fresh feeds were changed every day, and a daily food intake was calculated. […] The weights of the mice were weighed and recorded once a week, and a clean animal bedding subjected to high-pressure disinfection was replaced. […] According to conversion of oral and intravenous doses in Pharmacological Experimental Methodology edited by Shuyun Xu and an equivalent dose ratio of rats and mice, a dose of the valeric acid is finally determined as 75 mg/kg which is approximately equal to ⅛ of a half lethal dose of the valeric acid, meeting a safety range in toxicology. […]

[7] = 8 weeks of intervention, HF-V vs HF-PBS control group

Which results are given for CCCCC(=O)O [valeric acid]?
expression level of Akt [1]: significantly increased; expression level of PIPS [1]: significantly increased; expression level of Pdpk1 [1]: significantly increased; expression level of mTOR [1]: significantly increased; expression level of p-Akt [1]: significantly increased; expression level of p-mTOR [1]: significantly increased; expression level of ERK1/2 [2]: significantly increased; expression level of FoxO1A [2]: significantly increased; expression level of MafA [2]: significantly increased; expression level of Nkx6.1 [2]: significantly increased; expression level of PDX1 [2]: significantly increased; expression level of p-ERK1/2 [2]: significantly increased; expression level of Pdpk1 in the mouse pancreatic tissues [3]: significantly increased; CA19-9 in mouse serum ([4]; HF+VA mouse serum): < 0.600 U/mL; CEA in mouse serum ([4]; HF+VA mouse serum): < 0.200 U/mL; cancer invasion ([4]; from CEA and CA19-9 serum markers): does not occur; islet area ([5]; HE staining): increased significantly; islet cells ([5]; HE staining): increased significantly; proportion of Ki67 (+) ([5]; Ki67/insulin staining): increased significantly; ratio of the insulin to glucagon ([5]; immunofluorescence): increased significantly; areas under OGTT-2h blood glucose curves [6, 7]: significantly lower; fasting blood glucose [6, 7]: significantly lower; fasting insulin contents [6, 7]: significantly lower; weights of mice ([6]; valeric acid 75 mg/kg/d gavage (as sodium valerate), vs HF-PBS group, after the sixth week): significantly lower
